According to patent US20250082674A1, “METHODS OF TREATING COPPER METABOLISM-ASSOCIATED DISEASES OR DISORDERS” (priority 2021, published 2025):
Values joined by “and” are separate entries in the source; they are usually repeats but may differ in a detail not shown here. Identical values can stand only once. Like-named read-outs stand apart in the source and are kept apart here.

Tests used:
copper = test: Study 301: plasma copper pharmacodynamics (dNCC, LBC, plasma total copper; daily mean AUEC); type: in vivo, human; settings: for Mean Daily dNCC AUEC0-48w, Mean (SD): Full Analysis Set; for Mean Daily dNCC AUEC0-48w, Mean (SD) / Mean Daily dNCC AUEC0-48w, LSM (SE): multiple imputation
Description: FIG. 1 provides a schematic view of the study design. […] This study is referred throughout as Study 301.
The primary endpoint integrated copper mobilization and sequestration (i.e., copper control) throughout the 48-week Primary Treatment Period by assessment of daily mean area under the effect-time curve (AUEC) of directly measured non-ceruloplasmin-bound copper (dNCC) concentration. […] Measurement of dNCC in plasma is highly sensitive and accurate, requiring no special formulas or assumptions. As proposed, dNCC AUEC0-48W is an indirect measure of copper mobilization and sequestration.
This assessment is also applicable to SoC treatments. In addition, plasma Cp, CpC, plasma total copper, and LBC were measured with AUEC calculated for plasma total copper and LBC.
Pharmacodynamics: Blood samples were collected to directly measure plasma total copper, PUF copper, dNCC, and LBC. Calculations may be performed for cNCC and cNCCconnected, the latter of which is non-ceruloplasmin-bound and non-molybdenum-albumin-bound copper.
The AUEC for dNCC concentration was calculated using the trapezoidal rule, and then divided by number of days to yield a mean daily AUEC plasma dNCC concentration from baseline to Week 48 (expressed as μmol/L and described as AUEC0-48W).
Tests were performed at a significance level of 0.05 (2-sided).

[1] = test system: patients with Wilson disease (WD)
Description: Dose modification, if required, was made as described herein.

[2] = Study 301, Cohort 1, lower part of Table 5
[3] = Study 301, Cohort 2, lower part of Table 5
[4] = Study 301, Overall, lower part of Table 5

Bis-choline tetrathiomolybdate [BC-TTM]
AUEC(0-48 week) LBC, Mean (copper; Study 301, Adolescent): 1.5 mmol/L | AUEC(0-48 week) LBC, Median (copper; Study 301, Adolescent): 1.2 mmol/L | AUEC(0-48 week) PTC (plasma total copper), Mean (copper; Study 301, Adolescent): 7.5 mmol/L | AUEC(0-48 week) PTC (plasma total copper), Median (copper; Study 301, Adolescent): 5.4 mmol/L | AUEC(0-48 week) dNCC, Mean (copper; Study 301, Adolescent): 2.7 mmol/L | AUEC(0-48 week) dNCC, Median (copper; Study 301, Adolescent): 2.3 mmol/L | AUEC(0-48 week) LBC, Mean (copper; Study 301, Adult): 1.8 mmol/L | AUEC(0-48 week) LBC, Median (copper; Study 301, Adult): 1.2 mmol/L | AUEC(0-48 week) PTC (plasma total copper), Mean (copper; Study 301, Adult): 7.8 mmol/L | AUEC(0-48 week) PTC (plasma total copper), Median (copper; Study 301, Adult): 7.3 mmol/L | AUEC(0-48 week) dNCC, Mean (copper; Study 301, Adult): 3.2 mmol/L | AUEC(0-48 week) dNCC, Median (copper; Study 301, Adult): 2.2 mmol/L | Mean Daily dNCC AUEC0-48w, LSM Diff (SE), BC-TTM vs SoC (copper; Study 301, Cohort 1): 1.64 (0.254) μmol/L | Mean Daily dNCC AUEC0-48w, Mean (SD) (copper; Study 301, Cohort 1 (prior SoC >28 days)): 2.68 (2.118) μmol/L | Mean Daily dNCC AUEC0-48w, LSM (SE) (copper; Study 301, Cohort 1, ANCOVA): 2.50 (0.150) μmol/L | Mean Daily dNCC AUEC0-48w, Between Group LSM Diff (SE) (copper; [2]): 1.72 (0.277) μmol/L | Mean Daily dNCC AUEC0-48w, Within Group LSM (SE) (copper; [2]): 2.59 (0.165) μmol/L | Mean Daily dNCC AUEC0-48w, LSM Diff (SE), BC-TTM vs SoC (copper; Study 301, Cohort 2): 3.79 (0.584) μmol/L | Mean Daily dNCC AUEC0-48w, Mean (SD) (copper; Study 301, Cohort 2 (treatment-naïve or SoC ≤28 days)): 4.58 (2.526) μmol/L | Mean Daily dNCC AUEC0-48w, LSM (SE) (copper; Study 301, Cohort 2, ANCOVA): 4.76 (0.319) μmol/L | Mean Daily dNCC AUEC0-48w, Between Group LSM Diff (SE) (copper; [3]): 3.68 (0.568) μmol/L | Mean Daily dNCC AUEC0-48w, Within Group LSM (SE) (copper; [3]): 4.64 (0.315) μmol/L | time of peak of plasma dNCC (copper; Study 301, FIG. 2): 4 to 6 weeks | Mean Daily dNCC AUEC0-48w, LSM Diff (SE), BC-TTM vs SoC (copper; Study 301, Overall): 2.18 (0.244) μmol/L | Mean Daily dNCC AUEC0-48w, LSM (SE) (copper; Study 301, Overall, ANCOVA): 3.18 μmol/L and 3.18 (0.167) μmol/L | Mean Daily dNCC AUEC0-48w, Mean (SD) (copper; Study 301, Overall): 3.12 (2.347) μmol/L | Mean Daily dNCC AUEC0-48w, Between Group LSM Diff (SE) (copper; [4]): 2.12 (0.253) μmol/L | Mean Daily dNCC AUEC0-48w, Within Group LSM (SE) (copper; [4]): 3.06 (0.179) μmol/L | CGI-S (1 to 7, 1 is normal) Mean ([1]; Baseline): 2.7 | UWDRS Part II (0-40) Mean ([1]; Baseline): 3.4 | UWDRS Part III (0-175) Mean ([1]; Baseline): 13.99 | UWDRS Part III functional subscale (0-10) Mean ([1]; Baseline): 1.390 | UWDRS Part III-arising from chair (0-4) Mean ([1]; Baseline): 0.3 | UWDRS Part III-gait (0-4) Mean ([1]; Baseline): 1.40 | UWDRS Part III-handwriting (0-4) Mean ([1]; Baseline): 0.6 | UWDRS Part III-speech (0-4) Mean ([1]; Baseline): 0.8 | key secondary endpoints (UWDRS, CGI) versus baseline ([1]; Study 301 extension period, interim): statistically significant improvements from baseline | CGI-S (1 to 7, 1 is normal) LSM (SE) change from baseline ([1]; Week 24): −0.3 (0.07) | CGI-S (1 to 7, 1 is normal) Mean (SD) change from baseline ([1]; Week 24): −0.2 (0.79) | UWDRS Part II (0-40) LSM (SE) change from baseline ([1]; Week 24): −0.4 (0.20) | UWDRS Part II (0-40) Mean (SD) change from baseline ([1]; Week 24): −0.3 (1.99) | UWDRS Part III (0-175) LSM (SE) change from baseline ([1]; Week 24): −1.32 (0.619) | UWDRS Part III (0-175) Mean (SD) change from baseline ([1]; Week 24): −0.74 (5.937) | UWDRS Part III functional subscale (0-10) LSM (SE) change from baseline ([1]; Week 24): −0.158 (0.0547) | UWDRS Part III functional subscale (0-10) Mean (SD) change from baseline ([1]; Week 24): −0.139 (0.4540) | UWDRS Part III-arising from chair (0-4) LSM (SE) change from baseline ([1]; Week 24): −0.1 (0.03) | UWDRS Part III-arising from chair (0-4) Mean (SD) change from baseline ([1]; Week 24): 0.0 (0.38) | UWDRS Part III-gait (0-4) LSM (SE) change from baseline ([1]; Week 24): −0.21 (0.100) | UWDRS Part III-gait (0-4) Mean (SD) change from baseline ([1]; Week 24): −0.17 (1.113) | UWDRS Part III-handwriting (0-4) LSM (SE) change from baseline ([1]; Week 24): 0.0 (0.04) | UWDRS Part III-handwriting (0-4) Mean (SD) change from baseline ([1]; Week 24): −0.1 (0.38) | UWDRS Part III-speech (0-4) LSM (SE) change from baseline ([1]; Week 24): −0.1 (0.04) | UWDRS Part III-speech (0-4) Mean (SD) change from baseline ([1]; Week 24): −0.1 (0.38) | Transformed CGI-I Mean (SD) ([1]; Week 24, scores −3 (Very much improved) to 3 (Very much worse)): −0.5 (0.82) | CGI-S (1 to 7, 1 is normal) LSM (SE) change from baseline ([1]; Week 48): −0.4 (0.07) | CGI-S (1 to 7, 1 is normal) Mean (SD) change from baseline ([1]; Week 48): −0.5 (0.94) | UWDRS Part II (0-40) LSM (SE) change from baseline ([1]; Week 48): −0.7 (0.21) | UWDRS Part II (0-40) Mean (SD) change from baseline ([1]; Week 48): −0.7 (2.70) | UWDRS Part III (0-175) LSM (SE) change from baseline ([1]; Week 48): −2.47 (0.638) | UWDRS Part III (0-175) Mean (SD) change from baseline ([1]; Week 48): −2.32 (7.735) | UWDRS Part III functional subscale (0-10) LSM (SE) change from baseline ([1]; Week 48): −0.230 (0.0569) | UWDRS Part III functional subscale (0-10) Mean (SD) change from baseline ([1]; Week 48): −0.235 (0.6976) | UWDRS Part III-arising from chair (0-4) LSM (SE) change from baseline ([1]; Week 48): 0.0 (0.04) | UWDRS Part III-arising from chair (0-4) Mean (SD) change from baseline ([1]; Week 48): 0.0 (0.40) | UWDRS Part III-gait (0-4) LSM (SE) change from baseline ([1]; Week 48): −0.26 (0.104) | UWDRS Part III-gait (0-4) Mean (SD) change from baseline ([1]; Week 48): −0.18 (1.262) | UWDRS Part III-handwriting (0-4) LSM (SE) change from baseline ([1]; Week 48): −0.1 (0.04) | UWDRS Part III-handwriting (0-4) Mean (SD) change from baseline ([1]; Week 48): −0.2 (0.59) | UWDRS Part III-speech (0-4) LSM (SE) change from baseline ([1]; Week 48): −0.1 (0.04)
